Results from ChEMBL document CHEMBL1132959, “Design of potent dicyclic (1-5/4-10) gonadotropin releasing hormone (GnRH) antagonists” (J Med Chem, 2000).
Blank lines part the entries; values can stand above or below the compound they belong to.

Columns and labels:
Rattus norvegicus [1] = organism: Rattus norvegicus; assay: Antiovulatory potency at 500 ug/rat expressed as rats ovulating by total no. of rats (5/9); format: functional
Rattus norvegicus [2] = organism: Rattus norvegicus; assay: Antiovulatory potency at 250 ug/rat expressed as rats ovulating by total no. of rats (1/5); format: functional
[3] = biological target: T1, Gonadotropin-releasing hormone receptor (Rattus norvegicus, UniProt P30969); assay: Affinity for rat gonadotrophin releasing hormone (GnRH) receptor using HEK293 cells transfected with rat Gonadotropin-releasing hormone receptor; format: cell-based; conditions: hek293
T1 sequence (P30969 whole entry): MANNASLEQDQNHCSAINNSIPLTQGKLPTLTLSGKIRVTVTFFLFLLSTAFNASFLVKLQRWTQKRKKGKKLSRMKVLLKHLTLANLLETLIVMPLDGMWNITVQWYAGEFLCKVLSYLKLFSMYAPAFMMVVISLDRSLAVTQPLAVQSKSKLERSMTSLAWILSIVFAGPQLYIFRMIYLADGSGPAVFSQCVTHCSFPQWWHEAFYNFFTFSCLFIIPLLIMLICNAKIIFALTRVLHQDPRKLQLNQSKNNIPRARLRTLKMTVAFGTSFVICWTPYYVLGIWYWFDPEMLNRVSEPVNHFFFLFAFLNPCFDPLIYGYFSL

Rattus norvegicus [4] = organism: Rattus norvegicus; assay: Antiovulatory potency at 10 ug/rat expressed as rats ovulating by total no. of rats (2/7); format: functional
Rattus norvegicus [5] = organism: Rattus norvegicus; assay: Antiovulatory potency at 5 ug/rat expressed as rats ovulating by total no. of rats (3/3); format: functional
Rattus norvegicus [6] = organism: Rattus norvegicus; assay: Antiovulatory potency at 1000 ug/rat expressed as rats ovulating by total no. of rats (3/3); format: functional
Rattus norvegicus [7] = organism: Rattus norvegicus; assay: Antiovulatory potency at 250 ug/rat expressed as rats ovulating by total no. of rats (0/5); format: functional
Rattus norvegicus [8] = organism: Rattus norvegicus; assay: Antiovulatory potency at 100 ug/rat expressed as rats ovulating by total no. of rats (1/8); format: functional
[9] = biological target: T1, Gonadotropin-releasing hormone receptor; assay: Affinity for rat Gonadotropin-releasing hormone receptor membrane evaluated using HEK293 cells transfected with rat Gonadotropin-releasing hormone receptor; format: cell-based
Rattus norvegicus [10] = organism: Rattus norvegicus; assay: Antiovulatory potency at 25 ug/rat expressed as rats ovulating by total no. of rats (5/5); format: functional
Rattus norvegicus [11] = organism: Rattus norvegicus; assay: Antiovulatory potency at 100 ug/rat expressed as rats ovulating by total no. of rats (0/8); format: functional
Rattus norvegicus [12] = organism: Rattus norvegicus; assay: Antiovulatory potency at 50 ug/rat expressed as rats ovulating by total no. of rats (1/8); format: functional
Rattus norvegicus [13] = organism: Rattus norvegicus; assay: Antiovulatory potency at 500 ug/rat expressed as rats ovulating by total no. of rats (6/6); format: functional
Rattus norvegicus [14] = organism: Rattus norvegicus; assay: Antiovulatory potency at 10 ug/rat expressed as rats ovulating by total no. of rats (5/5); format: functional
Rattus norvegicus [15] = organism: Rattus norvegicus; assay: Antiovulatory potency at 250 ug/rat expressed as rats ovulating by total no. of rats (7/7); format: functional
Rattus norvegicus [16] = organism: Rattus norvegicus; assay: Antiovulatory potency at 50 ug/rat expressed as rats ovulating by total no. of rats (0/5); format: functional
Rattus norvegicus [17] = organism: Rattus norvegicus; assay: Antiovulatory potency at 250 ug/rat expressed as rats ovulating by total no. of rats (0/4); format: functional
Rattus norvegicus [18] = organism: Rattus norvegicus; assay: Antiovulatory potency at 100 ug/rat expressed as rats ovulating by total no. of rats (14/14); format: functional
Rattus norvegicus [19] = organism: Rattus norvegicus; assay: Antiovulatory potency at 1 ug/rat expressed as rats ovulating by total no. of rats (5/7); format: functional
Rattus norvegicus [20] = organism: Rattus norvegicus; assay: Antiovulatory potency at 2.5 ug/rat expressed as rats ovulating by total no. of rats (2/8); format: functional
Rattus norvegicus [21] = organism: Rattus norvegicus; assay: Antiovulatory potency at 5 ug/rat expressed as rats ovulating by total no. of rats (3/4); format: functional
Rattus norvegicus [22] = organism: Rattus norvegicus; assay: Antiovulatory potency at 25 ug/rat expressed as rats ovulating by total no. of rats (1/5); format: functional
Rattus norvegicus [23] = organism: Rattus norvegicus; assay: Antiovulatory potency at 10 ug/rat expressed as rats ovulating by total no. of rats (4/8); format: functional
Rattus norvegicus [24] = organism: Rattus norvegicus; assay: Antiovulatory potency at 25 ug/rat expressed as rats ovulating by total no. of rats (0/3); format: functional
Rattus norvegicus [25] = organism: Rattus norvegicus; assay: Antiovulatory potency at 10 ug/rat expressed as rats ovulating by total no. of rats (2/8); format: functional
Rattus norvegicus [26] = organism: Rattus norvegicus; assay: Antiovulatory potency at 500 ug/rat expressed as rats ovulating by total no. of rats (4/10); format: functional
Rattus norvegicus [27] = organism: Rattus norvegicus; assay: Antiovulatory potency at 250 ug/rat expressed as rats ovulating by total no. of rats (4/4); format: functional
Rattus norvegicus [28] = organism: Rattus norvegicus; assay: Antiovulatory potency at 100 ug/rat expressed as rats ovulating by total no. of rats (4/7); format: functional
Rattus norvegicus [29] = organism: Rattus norvegicus; assay: Antiovulatory potency at 1000 ug/rat expressed as rats ovulating by total no. of rats (5/5); format: functional

Ki [3]: 4.8 nM
Structure (SMILES): CC(=O)N[C@@H]1CC(=O)NC[C@@H]2NC(=O)[C@@H](CC(=O)NC[C@H](C(N)=O)NC(=O)[C@H]3CCCN3C(=O)[C@H](CCCN=C(N)N)NC(=O)[C@@H](CC(C)C)NC(=O)[C@@H](Cc3ccc4ccccc4c3)NC2=O)NC(=O)[C@@H](Cc2c[nH]c3ccccc23)NC(=O)[C@H](Cc2ccc(Cl)cc2)NC1=O
Ovulating rats (Rattus norvegicus [1]): 5
Ovulating rats (Rattus norvegicus [2]): 1

Ki [3]: 0.44 nM
Structure (SMILES): CC(=O)N[C@@H]1CCC(=O)NCC(=O)NC[C@H]2NC(=O)[C@@H](CC(=O)NC[C@H](C(N)=O)NC(=O)[C@H]3CCCN3C(=O)[C@H](CCCN=C(N)N)NC(=O)[C@@H](CC(C)C)NC(=O)[C@@H](Cc3ccc4ccccc4c3)NC2=O)NC(=O)[C@@H](Cc2c[nH]c3ccccc23)NC(=O)[C@H](Cc2ccc(Cl)cc2)NC1=O
Ovulating rats (Rattus norvegicus [4]): 2
Ovulating rats (Rattus norvegicus [5]): 3

Ki [3]: 1.7 nM
Structure (SMILES): CC(=O)N[C@@H]1CCC(=O)NCC[C@H]2NC(=O)[C@@H](CC(=O)NC[C@H](C(N)=O)NC(=O)[C@H]3CCCN3C(=O)[C@H](CCCN=C(N)N)NC(=O)[C@@H](CC(C)C)NC(=O)[C@@H](Cc3ccc4ccccc4c3)NC2=O)NC(=O)[C@@H](Cc2c[nH]c3ccccc23)NC(=O)[C@H](Cc2ccc(Cl)cc2)NC1=O
Ovulating rats (Rattus norvegicus [7]): 0
Ovulating rats (Rattus norvegicus [8]): 1

Ki [3]: 1.6 nM
Structure (SMILES): CC(=O)N[C@@H]1CCC(=O)N[C@@H](C)C(=O)NCC[C@H]2NC(=O)[C@@H](CC(=O)NC[C@H](C(N)=O)NC(=O)[C@H]3CCCN3C(=O)[C@H](CCCN=C(N)N)NC(=O)[C@@H](CC(C)C)NC(=O)[C@@H](Cc3ccc4ccccc4c3)NC2=O)NC(=O)[C@@H](Cc2c[nH]c3ccccc23)NC(=O)[C@H](Cc2ccc(Cl)cc2)NC1=O
Ovulating rats (Rattus norvegicus [14]): 5

Ki [3]: 1.1 nM
Structure (SMILES): CC(=O)N[C@H]1CCC(=O)NCCCC[C@@H]2NC(=O)[C@H](CC(C)C)NC(=O)[C@@H](Cc3ccc4ccccc4c3)NC(=O)[C@H](CCCN=C(N)N)NC(=O)[C@H](CC(=O)NC[C@H](C(N)=O)NC(=O)[C@@H]3CCCN3C2=O)NC(=O)[C@@H](Cc2cccnc2)NC(=O)[C@H](Cc2ccc(Cl)cc2)NC1=O
Ovulating rats (Rattus norvegicus [15]): 7
Ovulating rats (Rattus norvegicus [16]): 0

Ki [3]: 0.38 nM
Structure (SMILES): CC(=O)N[C@@H]1CC(=O)NCC(=O)NCC[C@H]2NC(=O)[C@@H](CC(=O)NC[C@H](C(N)=O)NC(=O)[C@H]3CCCN3C(=O)[C@H](CCCN=C(N)N)NC(=O)[C@@H](CC(C)C)NC(=O)[C@@H](Cc3ccc4ccccc4c3)NC2=O)NC(=O)[C@@H](Cc2ccc3ccccc3c2)NC(=O)[C@H](Cc2ccc(Cl)cc2)NC1=O
Ovulating rats (Rattus norvegicus [19]): 5
Ovulating rats (Rattus norvegicus [20]): 2

Ki [3]: 0.76 nM
Structure (SMILES): CC(=O)N[C@@H]1CCC(=O)NCCC(=O)NC[C@H]2NC(=O)[C@@H](CC(=O)NC[C@H](C(N)=O)NC(=O)[C@H]3CCCN3C(=O)[C@H](CCCN=C(N)N)NC(=O)[C@@H](CC(C)C)NC(=O)[C@@H](Cc3ccc4ccccc4c3)NC2=O)NC(=O)[C@@H](Cc2c[nH]c3ccccc23)NC(=O)[C@H](Cc2ccc(Cl)cc2)NC1=O
Ovulating rats (Rattus norvegicus [21]): 3
Ovulating rats (Rattus norvegicus [22]): 1
Ovulating rats (Rattus norvegicus [23]): 4

Ki [3]: 0.49 nM
Structure (SMILES): CC(=O)N[C@@H]1CC(=O)NCC(=O)NC[C@H]2NC(=O)[C@@H](CC(=O)NC[C@H](C(N)=O)NC(=O)[C@H]3CCCN3C(=O)[C@H](CCCN=C(N)N)NC(=O)[C@@H](CC(C)C)NC(=O)[C@@H](Cc3ccc4ccccc4c3)NC2=O)NC(=O)[C@@H](Cc2c[nH]c3ccccc23)NC(=O)[C@H](Cc2ccc(Cl)cc2)NC1=O
Ovulating rats (Rattus norvegicus [24]): 0
Ovulating rats (Rattus norvegicus [25]): 2

Continued, compound first:

Structure (SMILES): CC(=O)N[C@H](Cc1ccc2ccccc2c1)C(=O)N[C@@H]1CCC(=O)NCCCC[C@@H](C(=O)N2CCC[C@H]2C(=O)N[C@H](C)C(N)=O)NC(=O)[C@H](CC(C)C)NC(=O)[C@@H](Cc2ccc3ccccc3c2)NC(=O)[C@H](CCCN=C(N)N)NC(=O)[C@H](C)NC(=O)[C@@H](Cc2cccnc2)NC1=O
Ovulating rats (Rattus norvegicus [6]): 3

Structure (SMILES): CC(=O)N[C@H](Cc1ccc2ccccc2c1)C(=O)N[C@H](Cc1ccc(Cl)cc1)C(=O)N[C@@H]1CCC(=O)NCCCC[C@@H](C(=O)N2CCC[C@H]2C(=O)N[C@H](C)C(N)=O)NC(=O)[C@H](CC(C)C)NC(=O)[C@@H](Cc2ccc3ccccc3c2)NC(=O)[C@H](CCCN=C(N)N)NC(=O)[C@H](C)NC1=O
Ovulating rats (Rattus norvegicus [6]): 3

Structure (SMILES): CC(=O)N[C@H]1CCC(=O)NCC(=O)NCC[C@H]2NC(=O)[C@H](CC(=O)NC[C@@H](C(N)=O)NC(=O)[C@@H]3CCCN3C(=O)[C@H](CCCNC(=N)N)NC(=O)[C@H](CC(C)C)NC(=O)[C@@H](Cc3ccc4ccccc4c3)NC2=O)NC(=O)[C@@H](Cc2c[nH]c3ccccc23)NC(=O)[C@@H](Cc2ccc(Cl)cc2)NC1=O
Ki [9]: 2.9 nM

Structure (SMILES): CC(=O)N[C@@H]1CCC(=O)NCC(=O)NCC[C@@H]2NC(=O)[C@@H](CC(=O)NC[C@H](C(N)=O)NC(=O)[C@H]3CCCN3C(=O)[C@H](CCCN=C(N)N)NC(=O)[C@@H](CC(C)C)NC(=O)[C@@H](Cc3ccc4ccccc4c3)NC2=O)NC(=O)[C@@H](Cc2c[nH]c3ccccc23)NC(=O)[C@H](Cc2ccc(Cl)cc2)NC1=O
Ovulating rats (Rattus norvegicus [10]): 5
Ovulating rats (Rattus norvegicus [11]): 0
Ovulating rats (Rattus norvegicus [12]): 1

Structure (SMILES): CC(=O)N[C@H]1CSSC[C@@H]2NC(=O)[C@@H](CC(=O)NC[C@H](C(N)=O)NC(=O)[C@H]3CCCN3C(=O)[C@H](CCCN=C(N)N)NC(=O)[C@@H](CC(C)C)NC(=O)[C@H](CCCN=C(N)N)NC2=O)NC(=O)[C@@H](Cc2c[nH]c3ccccc23)NC(=O)[C@H](Cc2ccc(Cl)cc2)NC1=O
Ki [3]: 89 nM
Ovulating rats (Rattus norvegicus [13]): 6

Structure (SMILES): CC(=O)N[C@H](Cc1ccc2ccccc2c1)C(=O)N[C@H](Cc1ccc(Cl)cc1)C(=O)N[C@@H]1CC(=O)NCC[C@@H](C(=O)N2CCC[C@H]2C(=O)N[C@H](C)C(N)=O)NC(=O)[C@H](CC(C)C)NC(=O)[C@@H](Cc2ccc3ccccc3c2)NC(=O)[C@H](CCCN=C(N)N)NC(=O)[C@H](C)NC1=O
Ovulating rats (Rattus norvegicus [17]): 0
Ovulating rats (Rattus norvegicus [18]): 14

Structure (SMILES): CC(=O)N[C@H]1CSSC[C@H]2NC(=O)[C@@H](CC(=O)NC[C@H](C(N)=O)NC(=O)[C@H]3CCCN3C(=O)[C@H](CCCN=C(N)N)NC(=O)[C@@H](CC(C)C)NC(=O)[C@@H](Cc3ccc4ccccc4c3)NC2=O)NC(=O)[C@@H](Cc2c[nH]c3ccccc23)NC(=O)[C@H](Cc2ccc(Cl)cc2)NC1=O
Ovulating rats (Rattus norvegicus [26]): 4
Ki [3]: 0.25 nM

Structure (SMILES): CC(=O)N[C@H](Cc1ccc2ccccc2c1)C(=O)N[C@H](Cc1ccc(Cl)cc1)C(=O)N[C@@H]1CC(=O)NCCCC[C@@H]2NC(=O)[C@H](CC(C)C)NC(=O)[C@@H](Cc3ccc4ccccc4c3)NC(=O)[C@H](CCCN=C(N)N)NC(=O)[C@H](CC(=O)NC[C@@H](C(N)=O)NC(=O)[C@@H]3CCCN3C2=O)NC1=O
Ovulating rats (Rattus norvegicus [27]): 4
Ovulating rats (Rattus norvegicus [28]): 4

Structure (SMILES): CC(C)C[C@@H]1NC(=O)[C@@H](Cc2ccc3ccccc3c2)NC(=O)[C@H](CCCN=C(N)N)NC(=O)[C@H](C)NC(=O)[C@@H](Cc2cccnc2)NC(=O)[C@@H](Cc2ccc(Cl)cc2)NC(=O)[C@@H](Cc2ccc3ccccc3c2)NC(=O)CCC(=O)NCCCC[C@@H](C(=O)N2CCC[C@H]2C(=O)N[C@H](C)C(N)=O)NC1=O
Ovulating rats (Rattus norvegicus [29]): 5
